What is called IC50 is the midpoint of a concentration-inhibition curve.

In this test the target is Transcription factor p65 (Human, UniProt Q04206). Put plainly: Inhibition of TNF alpha stimulated NF-KappaB p65 in human HeLa nuclear extract assessed as decrease in NF-KappaB translocation to nucleus measured after 5 hrs by ELISA. In general terms: ELISA stands for enzyme-linked immunosorbent assay.

The structures appear in SMILES notation.

Transcription factor p65, sequence (Q04206 whole entry): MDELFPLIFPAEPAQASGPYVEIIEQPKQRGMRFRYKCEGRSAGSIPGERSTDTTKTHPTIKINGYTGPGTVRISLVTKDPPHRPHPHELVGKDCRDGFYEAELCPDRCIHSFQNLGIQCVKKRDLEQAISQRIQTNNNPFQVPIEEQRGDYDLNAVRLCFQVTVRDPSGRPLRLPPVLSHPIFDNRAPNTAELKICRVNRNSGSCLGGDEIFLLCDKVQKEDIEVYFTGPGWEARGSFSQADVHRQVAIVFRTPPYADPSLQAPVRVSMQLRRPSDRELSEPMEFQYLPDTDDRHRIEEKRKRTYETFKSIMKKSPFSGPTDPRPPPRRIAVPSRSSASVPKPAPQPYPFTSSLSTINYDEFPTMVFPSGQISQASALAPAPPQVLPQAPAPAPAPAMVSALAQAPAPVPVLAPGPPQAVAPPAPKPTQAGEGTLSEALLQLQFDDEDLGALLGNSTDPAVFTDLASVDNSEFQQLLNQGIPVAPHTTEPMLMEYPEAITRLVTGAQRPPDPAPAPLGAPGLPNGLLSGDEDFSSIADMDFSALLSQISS

Take `C[C@H]1O[C@@H](O[C@H]2CC[C@]3(C)[C@H]4CC[C@]5(C)[C@@H](C6=CC(=O)OC6)CC[C@]5(O)[C@@H]4CC[C@]3(O)C2)C[C@H](O)[C@@H]1O[C@@H]1O[C@H](CO)[C@@H](O)[C@H](O)[C@H]1O`: the IC50 was determined as 4.3 µM.

For the origin of these results see BindingDB's records for doi:10.1021/acs.jnatprod.9b00140 (University of Illinois At Chicago, 2019).
